Measurements published in US12377104B1, “Methods for treating a fatty liver disease” (Madrigal Pharmaceuticals, Inc., priority 2024, dated 2025).

Tests used:
[1] = test system: NASH patients; experiment: MAESTRO-NAFLD-1 100 mg open label non-cirrhotic NASH arm, 52 weeks; type: in vivo, human
Description: The 169 patient, 100 mg open label (OL) arm completed the 52 week study in July 2021.
Eligibility required at least 3 metabolic risk factors (Metabolic syndrome), fibroscan kilopascals (kPa) consistent with ≥F1 fibrosis stage, and MRI-PDFF≥8%. The primary and key secondary endpoints of MAESTRO-NAFLD-1 including safety, relative percent reduction of MRI-PDFF (week 16), LDL cholesterol (LDL-C) (week 24), apolipoprotein B and triglycerides, fibroscan and 52 week endpoints were analyzed in the OL arm.
Mean age was 55.7 (11.5 Standard Deviation (SD)), female 69%, BMI 35.8 (6.0), diabetes 43%, hypertension 62%, dyslipidemia >70%, atherosclerotic cardiovascular disease (ASCVD) score 11.5%; fibroscan (kPa 7.7 (3.6)), and MRI-PDFF 17% (7%). […] Liver volume (LV) was elevated at baseline (2202 cm3 (535)) by […] relative to normal controls and −15% after correction for BMI (Euro J of Radiol 106, 2018, 32-37). […] LV reduction was 2-3 fold greater than predicted by % reduction in MRI-PDFF, a measure of liver fat content (Clin Gastroenterol Hepatol. 2015 13: 561-568); LY-corrected mean MRI-PDFF reduction was −63% (2.4%). […] At week 52, magnetic resonance elastography (MRE) (−0.34, p=0.03); fibroscan controlled attenuation parameter (CAP) (−39 (4.6)) and vibration-controlled transient elastography (VCTE) (−1.87; −20%) (p<0.0001) were reduced relative to baseline.

[2] = test system: NASH patients with and without possible MetALD; experiment: MAESTRO-NASH: possible MetALD subgroup; type: in vivo, human; details: for Fibrosis Improvement, % of patients / Fibrosis Improvement, number of patients / NASH Resolution, % of patients / NASH Resolution, number of patients: Week 52
Description: Analyses were performed on 782 patients who had both a baseline and Week 52 biopsy. Patients with a self-declared consumption of alcohol ≤2 drinks/day for men and ≤1.5 drinks/day for women were included as per usual MASH diagnostic recommendations. However, in attempt to objectify undisclosed moderate alcohol consumption above those limits, at baseline or during the trial, CDT measurements were performed longitudinally in all patients over 52 weeks. Post-randomization, a phosphatidylethanol (PEth) test was performed in patients tested for alcohol consumption based on increased liver enzymes ALT, AST and/or GGT (<2%). Those with increased PEth were included as MetALD. Patients with baseline or post-baseline CDT>2.5% (ULN 2.47) and/or a PEth>20 ng/mL (ULN 20 ng/mL) were assigned to a “possible MetALD” subgroup (possible increased alcohol consumption).

[3] = clinical; details: human, in vivo
Description: Following once daily doses, steady state was typically reached within 3 to 6 days of dosing.

[4] = MASH/NASH (low alcohol), 80 mg (n = 224)
[5] = MASH/NASH (low alcohol), 100 mg
[6] = MASH/NASH (low alcohol), 100 mg (n = 228)
[7] = low or no alcohol consumption, 80 mg
[8] = low or no alcohol consumption, 100 mg

Structure (SMILES): CC(C)c1cc(Oc2c(Cl)cc(-n3nc(C#N)c(=O)[nH]c3=O)cc2Cl)n[nH]c1=O [Resmetirom, 2-(3,5-dichloro-4-((5-isopropyl-6-oxo-1,6-dihydropyridazin-3-yl)oxy)phenyl)-3,5-dioxo-2,3,4,5-tetrahydro-1,2,4-triazine-6-carbonitrile]
- ALT decrease from baseline [1]: −20 IU
- AST decrease from baseline [1]: −11 IU
- Blood pressure (systolic, diastolic) change [1]: −2 mmHg
- GGT decrease from baseline [1]: −25 IU
- LDL-C change [1]: −22%
- LV reduction greater than predicted by % reduction in MRI-PDFF [1]: 2-3 fold
- LV-corrected mean MRI-PDFF reduction [1]: −63%
- apolipoprotein-B change [1]: −24%
- triglycerides change [1]: −24%
- bone mineral density (DEXA) ([1]; 52 weeks): unchanged
- safety ([1]; 52 weeks): No safety flags
- LV change ([1]; week 16): −21%
- LV change ([1]; week 52): −23%
- reduction of MRI-PDFF ([1]; week 52): −53%
- MRI-PDFF ≥30% reduction, % of patients ([2]; MASH/NASH (low alcohol), 80 mg): (59.2%)
- MRI-PDFF ≥30% reduction, patients/evaluated ([2]; MASH/NASH (low alcohol), 80 mg): 109/184
- Fibrosis Improvement, % of patients [2, 4]: 29%
- Fibrosis Improvement, number of patients [2, 4]: 65
- NASH Resolution, % of patients [2, 4]: 29.9%
- NASH Resolution, number of patients [2, 4]: 67
- MRI-PDFF ≥30% reduction, % of patients [2, 5]: (71.2%)
- MRI-PDFF ≥30% reduction, patients/evaluated [2, 5]: 136/191
- Fibrosis Improvement, % of patients [2, 6]: 33.3%
- Fibrosis Improvement, number of patients [2, 6]: 76
- NASH Resolution, % of patients [2, 6]: 36%
- NASH Resolution, number of patients [2, 6]: 82
- MRI-PDFF ≥30% reduction, % of patients ([2]; MetALD, 80 mg): (88%)
- MRI-PDFF ≥30% reduction, patients/evaluated ([2]; MetALD, 80 mg): 23/26
- Fibrosis Improvement, % of patients ([2]; MetALD, 80 mg (n = 34)): 35%
- Fibrosis Improvement, number of patients ([2]; MetALD, 80 mg (n = 34)): 12
- NASH Resolution, % of patients ([2]; MetALD, 80 mg (n = 34)): 29%
- NASH Resolution, number of patients ([2]; MetALD, 80 mg (n = 34)): 10
- MRI-PDFF ≥30% reduction, % of patients ([2]; MetALD, 100 mg): (81%)
- MRI-PDFF ≥30% reduction, patients/evaluated ([2]; MetALD, 100 mg): 13/16
- Fibrosis Improvement, % of patients ([2]; MetALD, 100 mg (n = 20)): 30%
- Fibrosis Improvement, number of patients ([2]; MetALD, 100 mg (n = 20)): 6
- NASH Resolution, % of patients ([2]; MetALD, 100 mg (n = 20)): 35%
- NASH Resolution, number of patients ([2]; MetALD, 100 mg (n = 20)): 7
- NASH resolution, patients [2, 7]: 29.9%
- fibrosis improvement, patients [2, 7]: 29%
- ≥30% reduction from baseline in MRI-PDFF, patients [2, 7]: 59.2%
- NASH resolution, patients [2, 8]: 36%
- fibrosis improvement, patients [2, 8]: 33.3%
- ≥30% reduction from baseline in MRI-PDFF, patients [2, 8]: 71.2%
- NASH resolution, patients ([2]; possible MetALD, 80 mg): 29%
- fibrosis improvement, patients ([2]; possible MetALD, 80 mg): 35%
- ≥30% reduction from baseline in MRI-PDFF, patients ([2]; possible MetALD, 80 mg): 88%
- NASH resolution, patients ([2]; possible MetALD, 100 mg): 35%
- fibrosis improvement, patients ([2]; possible MetALD, 100 mg): 30%
- ≥30% reduction from baseline in MRI-PDFF, patients ([2]; possible MetALD, 100 mg): 81%
- Tmax [3]: ~4 h
- half-life [3]: 4.5 h
- AUC ([3]; 80 mg): 5850 ng·h/mL
- Cmax ([3]; 80 mg): 778 ng/mL
- AUC ([3]; 100 mg): 7780 ng·h/mL
- Cmax ([3]; 100 mg): 971 ng/mL
